# Key:
# [1] = system: ovarian cancer cell line CaOV3; experiment: cell-growth-on-bead assay, CaOV3; assay type: cell-based, human; details: Example 4, cX2GX4GX6X7c library, peptide concentration on bead surface 20% of Example 3
# Experimental: (§1) The ratio of cells to beads is preferably about 10:1, but can range from about 1:1 to 100:1. The suspension of cells 10 and beads 12 is mixed gently for sufficient time to assure contact of beads 12 with suspended cells 10. The culture plates are incubated in a tissue culture incubator at about 4° C. to about 37° C., preferably 37° C., for a period of about 24 to about 72 hours. The suspension of cells 10 and beads 12 may be kept still or mixed, either continuously or intermittently, during the incubation period.
# (§2) After the incubation period, beads 12 are observed under a dissecting microscope. […] These beads 14 (referred to as “positive” beads) are removed from the culture plates. A tetrazolium dye that stains live, but not dead, cells can be used to facilitate the identification and removal of the positive beads. If a dye is used, all of the beads are removed after the incubation period and resuspended in fresh medium in new culture plates. The dye is added. The plates are then incubated in a tissue culture incubator at 25° C. to 37° C. for about one to four hours. Live cells 10 convert the dye to a colored metabolite, which results in beads 14 with attached cells appearing colored, allowing them to be easily distinguished from beads 16 without attached cells, which appear colorless, as shown in FIG. 1E. Other dyes that stain live cells can also be used. After positive beads 14 are removed from the plates, attached cells 10 are separated from the beads. This can be done with the addition of a chaotrophic agent, such as 8 M guanidine hydrochloride, or a protease, such as trypsin.
# (§3) About 150,000 peptide beads were mixed with approximately one million suspended cells in 15 ml of culture medium and distributed into six 3-cm culture plates. The culture plates were agitated gently at about 100 rpm for about 10 minutes. The culture plates were then incubated in a tissue culture incubator at 37° C. for about 24 hours to about 72 hours.
# (§4) A dissecting microscope was used to examine the beads at about 24, 48, and 72 hours. After about 24 to 72 hours, beads with a monolayer of cells were observed.
# (§5) At the end of the incubation period, all of the beads were removed and resuspended in fresh medium in a new culture plate. An MTT ([3-(4,5-dimethylthiazol-2-yl)-2,5-diphenyl] tetrazolium bromide) (Sigma, St. Louis, Mo.) dye solution was added to each culture plate to a final concentration of 0.5 mg/ml. The plates were incubated in a tissue culture incubator at 37° C. for about two hours to allow the purple color to develop. Each purple-colored peptide bead was isolated and removed. The attached cells were separated from the beads with 8 M guanidine hydrochloride.
# (§6) The amino acid sequence of each isolated peptide bead was determined using an automated Procise 494 protein sequencer (Applied Biosystems, Foster City, Calif.). Several consensus peptide sequences were determined, one of which was cNGRGEQc. This peptide was resynthesized on beads, which were then rescreened with the A549 cells using the assay of the invention.
# The method as described in Example 1 was performed, except that the combinatorial peptide library was screened with a different type of epithelial cancer cells, the ovarian cancer cell line CaOV3 (American Type Culture Collection).
# As described in Example 1, after culturing for about 24 to 72 hours, beads with a monolayer of cells were observed. These positive beads were isolated and the amino acid sequence of each positive bead was determined, as described in Example 1.
# The method as described in Example 1 was performed, except that a different combinatorial library was used and different types of epithelial cancer cells were used. The peptide library of Example 3 was used, except that the concentration of peptides on the surface of each bead was 20% of that used in Example 3, resulting in an increase in screening stringency. […]
# [2] = system: epithelial cells; experiment: secondary library screening and structure/activity relationship studies; assay type: cell-based
# Source text: Through additional secondary library screening and structure/activity relationship studies, other ligands for epithelial cells have been identified, including the following: • c-D-G-Chg-G-A-N-c; c-N-G-Bpa-G-Q-M-c; c-N-G-Acdt-G-D-Bpa-c; cNGTGDGc; • cNGQGAGc; cNGYGSFc; c-N-G-Nle-G-Y-G-c; cNGMGAYc; cNGQGEQc; • cRGNGTDc; cNGQGPLc; cNGLGRSc; cDGMGSNc; cNGLGQYc; and • cNGYGTTc.
# [3] = system: epithelial ovarian cancer cell line SKOV-3; experiment: cell-growth-on-bead assay, SKOV-3; assay type: cell-based, human
# Experimental: as §1, §2, §3, §4, §5, §6
# (§7) The method as described in Example 1 was performed, except that a different combinatorial library was used and different types of epithelial cancer cells were used. A one-bead-one-compound combinatorial peptide library was prepared according to the method described in Example 1, with the following formula: cX2GX4GX6X7c, where “c” is D-cysteine; “G” is glycine; X2 is D,d,N, n, S,Q,q,T, HoSer, Cit, E, e, HoCit, Hyp, Aad, Lys(Ac), A, 4-Pal, D-3-Pal, Pra, D-Pra, Y, Aib, M, Phe(4-CN), Tyr(3-NO2), Tyr(Me), Phe(4-NO2), Bug, Ach, Tyr(3,5-I), Aic, Phe(3-Cl), Chg, Bta, Bpa, Phe(3,4-Cl), Hyp(Bzl), or Cha; and X4, X6 and X7 are N, S, Q, T, HoSer, Cit, HoCit, Hyp, H, A, Pal, D-3-Pal, Pra, R, Y, Aib, Abu, P, M, V, Nva, Tyr(3-NO2), W, Phg, Phe(4-NO2), Bug, I, Ach, L, Nle, Phe(4-Me), Aic, Phe(3-Cl), HoPhe, Chg, Bta, Bpa, 2-Nal, 1-Nal, Phe(3,4-Cl), Hyp(Bzl), or Cha. […]
# [4] = system: epithelial ovarian cancer cell line ES-2; experiment: cell-growth-on-bead assay, ES-2; assay type: cell-based, human
# Experimental: as §1, §2, §3, §4, §5, §6, §7
# [5] = Example 3, cX2GX4GX6X7c library, 24 to 72 hours
# [6] = Example 4, cX2GX4GX6X7c library, peptide concentration on bead surface 20% of Example 3
substance,measurement,setting,value
c-D-G-Cha-G-Hyp-N-c,identified as ligand (positive bead with monolayer of cells),[1],identified
c-D-G-Chg-G-A-N-c,identified as ligand for epithelial cells,[2],identified
c-N-G-Acdt-G-D-Bpa-c,identified as ligand for epithelial cells,[2],identified
c-N-G-Bpa-G-Q-M-c,identified as ligand for epithelial cells,[2],identified
c-N-G-Nle-G-Y-G-c,identified as ligand for epithelial cells,[2],identified
c-d-G-(4-Pal)-G-Tyr(3-NO2)-Cha-c,identified as ligand (positive bead with monolayer of cells),[3]; [5],identified
c-d-G-A-G-Bta-L-c,identified as ligand (positive bead with monolayer of cells),[3]; [6],identified
c-d-G-Aib-G-Aib-N-c,identified as ligand (positive bead with monolayer of cells),[4]; [6],identified
c-d-G-Aib-G-P-S-c,identified as ligand (positive bead with monolayer of cells),[4]; [6],identified
c-d-G-Bta-G-Hyp-Y-c,identified as ligand (positive bead with monolayer of cells),[4]; [6],identified
c-d-G-Cha-G-1-T-c,identified as ligand (positive bead with monolayer of cells),[3]; [5],identified
c-d-G-Cha-G-Bta-Q-c,identified as ligand (positive bead with monolayer of cells),[4]; [6],identified
c-d-G-Cha-G-HoCit-Q-c,identified as ligand (positive bead with monolayer of cells),[4]; [6],identified
c-d-G-Cha-G-HoCit-S-c,identified as ligand (positive bead with monolayer of cells),[4]; [5],identified
c-d-G-Chg-G-Hyp-N-c,identified as ligand (positive bead with monolayer of cells),[1],identified
c-d-G-Cit-G-Hyp(Bzl)-M-c,identified as ligand (positive bead with monolayer of cells),[3]; [5],identified
c-d-G-HoCit-G-P-Q-c,identified as ligand (positive bead with monolayer of cells),[4]; [6],identified
c-d-G-L-G-HoSer-T-c,identified as ligand (positive bead with monolayer of cells),[4]; [5],identified
c-d-G-L-G-S-Bpa-c,identified as ligand (positive bead with monolayer of cells),[3]; [6],identified
c-d-G-M-G-HoSer-Nle-c,identified as ligand (positive bead with monolayer of cells),[1],identified
c-d-G-M-G-S-Cha-c,identified as ligand (positive bead with monolayer of cells),[1],identified
c-d-G-Nle-G-Phe(3-Cl)-S-c,identified as ligand (positive bead with monolayer of cells),[3]; [6],identified
c-d-G-Nva-G-Phe (4-CN)-F-c,identified as ligand (positive bead with monolayer of cells),[3]; [5],identified
c-d-G-Phe(3-Cl)-G-Q-F-c,identified as ligand (positive bead with monolayer of cells),[4]; [5],identified
c-d-G-Phe(4-Me)-G-Aib-S-c,identified as ligand (positive bead with monolayer of cells),[4]; [6],identified
c-d-G-Phe(4-Me)-G-T-Pra-c,identified as ligand (positive bead with monolayer of cells),[3]; [5],identified
c-d-G-Phe(4Me)-G-P-Cha-c,identified as ligand (positive bead with monolayer of cells),[4]; [5],identified
c-d-G-Phg-G-P-F-c,identified as ligand (positive bead with monolayer of cells),[3]; [5],identified
c-d-G-Tyr(3-NO2)-G-F-L-c,identified as ligand (positive bead with monolayer of cells),[1],identified
c-d-G-Tyr(3-NO2)-G-Nle-H-c,identified as ligand (positive bead with monolayer of cells),[3]; [6],identified
c-d-G-Tyr(3-NO2)-G-Phg-M-c,identified as ligand (positive bead with monolayer of cells),[3]; [6],identified
c-d-G-Tyr(3-NO2)-G-i-Pra-c,identified as ligand (positive bead with monolayer of cells),[1],identified
c-d-G-Tyr(3NO2)-G-Pra-G-c,identified as ligand (positive bead with monolayer of cells),[3]; [5],identified
c-d-G-Tyr(Me)-G-T-M-c,identified as ligand (positive bead with monolayer of cells),[4]; [5],identified
c-d-G-V-G-Hyp-HoSer-c,identified as ligand (positive bead with monolayer of cells),[4]; [5],identified
cDGMGSNc,identified as ligand for epithelial cells,[2],identified
cNGLGQYc,identified as ligand for epithelial cells,[2],identified
cNGLGRSc,identified as ligand for epithelial cells,[2],identified
cNGMGAYc,identified as ligand for epithelial cells,[2],identified
cNGQGAGc,identified as ligand for epithelial cells,[2],identified
cNGQGEQc,identified as ligand for epithelial cells,[2],identified
cNGQGPLc,identified as ligand for epithelial cells,[2],identified
cNGTGDGc,identified as ligand for epithelial cells,[2],identified
cNGYGSFc,identified as ligand for epithelial cells,[2],identified
cNGYGTTc,identified as ligand for epithelial cells,[2],identified
cRGNGTDc,identified as ligand for epithelial cells,[2],identified
cdGIGPQc,identified as ligand (positive bead with monolayer of cells),[3]; [5],identified
cdGLGFTc,identified as ligand (positive bead with monolayer of cells),[3]; [5],identified
cdGLGWGc,identified as ligand (positive bead with monolayer of cells),[4]; [6],identified
cdGLGYYc,identified as ligand (positive bead with monolayer of cells),[4]; [5],identified
cdGMGSAc,identified as ligand (positive bead with monolayer of cells),[1],identified
